{"source": "patent US12043625B2", "about": "“Pyridine derivatives with c-linked cyclic substituents as cGAS inhibitors” (BOEHRINGER INGELHEIM INTERNATIONAL GMBH, priority 2021, dated 2024)", "key": {"[1]": {"system": "IFN induction in cGAMP-stimulated THP1 cells", "test": "cGAMP stimulated counter cell assay, THP1-Dual cells, Lucia luciferase reporter (THP1(cGAMP) IC50);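 on all read-outs here: IRF-driven Lucia luciferase luminescence after 18 h at 37° C, compound series topping at 10 µM with 1% DMSO, unstimulated wells as 0% and DMSO wells as 100%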", "format": "cell-based", "settings": "Homo sapiens, THP-1, THP1-Dual cells stimulated with 10 μM cGAMP"}, "Human cGAS": {"target": "Human cGAS (Homo sapiens (Human), UniProt Q8N884)", "sequence (Q8N884 whole entry)": "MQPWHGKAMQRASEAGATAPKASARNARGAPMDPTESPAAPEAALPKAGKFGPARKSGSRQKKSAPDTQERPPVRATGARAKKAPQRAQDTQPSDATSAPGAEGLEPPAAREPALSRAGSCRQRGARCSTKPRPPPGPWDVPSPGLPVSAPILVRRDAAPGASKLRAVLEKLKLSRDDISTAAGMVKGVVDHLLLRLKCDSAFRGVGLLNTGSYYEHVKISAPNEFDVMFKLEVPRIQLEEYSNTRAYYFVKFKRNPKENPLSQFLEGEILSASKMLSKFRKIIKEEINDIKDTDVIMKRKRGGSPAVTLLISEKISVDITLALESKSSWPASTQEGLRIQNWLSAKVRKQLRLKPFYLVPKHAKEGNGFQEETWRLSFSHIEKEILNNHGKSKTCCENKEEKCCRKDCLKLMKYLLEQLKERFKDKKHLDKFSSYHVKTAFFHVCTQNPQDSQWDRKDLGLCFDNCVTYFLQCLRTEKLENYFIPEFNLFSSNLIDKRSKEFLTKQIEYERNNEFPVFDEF", "test": "Human cGAS enzyme assay (hcGAS IC50, in vitro), cGAMP formation by RapidFire MS;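 on all read-outs here: compounds preincubated 60 min, then GTP and ATP (30 µM each) added for 90 min at room temperature, cGAMP read relative to cyclic-di-GMP internal standard, no-enzyme/DNA wells as 0%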", "format": "biochemical", "settings": "45 bp dsDNA, GTP/ATP"}, "[2]": {"system": "IFN induction in dsDNA-stimulated human whole blood", "test": "Human whole blood assay, dsDNA transfection, IFNα2a production (hWB IC50);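 on all read-outs here: cGAS pathway activity, IFNα2a in plasma by MSD immunoassay after 22 h at 37 °C, 8 concentrations up to 10 µM in 0.1% DMSO, DMSO controls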", "format": "cell-based"}, "[3]": {"system": "IFN induction in virus-stimulated THP1 cells", "test": "Human cGAS cell assay, baculovirus-stimulated THP1-Dual cells, Lucia luciferase reporter (THP1(vir) IC50);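 on all read-outs here: IRF-dependent luminescence, 8 concentrations up to 10 µM in 1% DMSO, 0% = unstimulated cells, 100% = DMSO plus virus, counter assay stimulated with cGAMP downstream of cGAS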", "format": "cell-based", "settings": "for IC50: Homo sapiens, THP-1, baculovirus-stimulated THP1-Dual cells, 18 h; for Ratio THP(cGAMP) IC50/THP(vir) IC50: selectivity for cGAS inhibition", "description": "THP1-Dual™ cells (InvivoGen #thpd-nfis) expressing IRF dependent Lucia luciferase reporter were used as basis for both assays. For the detection of cellular cGAS activity cells were stimulated by a baculovirus (pFastbac-1, Invitrogen, no coding insert) infection that delivers the cGAS enzyme stimulating double-stranded DNA (measurement of THP1(vir) IC50).\nFor the counter assay, cells were stimulated by cGAMP (SigmaAldrich #SML1232) to activate the identical pathway independent and directly downstream of cGAS (measurement of THP1(cAMP) IC50). Pathway activity was monitored by measuring the Lucia luciferase activity induced by either DNA stimulated cGAS enzyme activity (measurement of THP1^(vir) IC50) or by cGAMP directly (measurement of THP1(cAMP) IC50, counter assay).\nTypically, 8 concentrations were used with the highest concentration at 10 μM in the final assay volume followed by ˜1:5 dilution steps. DMSO concentration was set to 1% in the final assay volume. The 384 well assay plate contained 21 test compounds (column 1-22), and DMSO in column 23 and 24.\nThe baculovirus solution was then added 1:200 (may have varied according to virus batch) to the cells (measurement of THP1(vir) IC50).\n30 μL of the cell/virus-mix were added to each well of the compound plate from column 1-23 via MultiDrop Combi dispenser (5000 cells/well). In column 24, 30 μl/5000 cells/well without virus were added as a low control.\nThe plates were then incubated for 18 h at 37° C. in a humidified incubator.\nFollowing that, 15 μL of QuantiLuc detection reagent (InvivoGen #rep-qlcg5) were added to each well using a MultiDrop Combi. Measurement was done immediately after the addition using an EnVision reader (US-luminescence read-mode).\nData Evaluation and Calculation:\nFor data evaluation and calculation, the measurement of the low control was set as 0% control and the measurement of the high control was set as 100% control. The IC50 values were calculated using the standard 4 parameter logistic regression formula. Calculation: [y=(a−d)/(1+(x/c)^b)+d], a=low value, d=high value; x=conc M; c=1C50 M; b=slope"}}}
{"compound": "O=C(O)[C@@H]1C[C@H](Oc2ncc(Cl)cc2[C@@]2(F)CCS(=O)(=O)C3(CC3)C2)CN1c1nc(C(F)F)nc2c1oc1ccccc12", "note": "[Example 1.18]", "values": [{"measurement": "IC50", "setting": "[1]", "result": 10900, "unit": "nM"}, {"measurement": "IC50", "setting": "Human cGAS", "result": 9, "unit": "nM"}, {"measurement": "IC50", "setting": "[2]", "result": 287, "unit": "nM"}, {"measurement": "IC50", "setting": "[3]", "result": 535, "unit": "nM"}, {"measurement": "Ratio THP(cGAMP) IC50/THP(vir) IC50", "setting": "[3]", "result": 20}]}
{"compound": "C#Cc1cnc(O[C@H]2C[C@@H](C(=O)O)N(c3nc(C(F)F)nc4c3oc3ccccc34)C2)c(C2(F)CCS(=O)(=O)CC2)c1", "note": "[Example 2.03]", "values": [{"measurement": "IC50", "setting": "[1]", "result": "> 16600", "unit": "nM"}, {"measurement": "IC50", "setting": "Human cGAS", "result": 2, "unit": "nM"}, {"measurement": "IC50", "setting": "[2]", "result": 40, "unit": "nM"}, {"measurement": "IC50", "setting": "[3]", "result": 112, "unit": "nM"}, {"measurement": "Ratio THP(cGAMP) IC50/THP(vir) IC50", "setting": "[3]", "result": ">148"}]}
{"compound": "CO[C@]1(c2cc(Cl)cnc2O[C@H]2C[C@@H](C(=O)O)N(c3nc(C(F)F)nc4c3oc3ccccc34)C2)CC(C)(C)S(=O)(=O)C[C@@H]1C", "note": "[Example 1.05]", "values": [{"measurement": "IC50", "setting": "[1]", "result": 13200, "unit": "nM"}, {"measurement": "IC50", "setting": "Human cGAS", "result": 2, "unit": "nM"}, {"measurement": "IC50", "setting": "[2]", "result": 135, "unit": "nM"}, {"measurement": "IC50", "setting": "[3]", "result": 44, "unit": "nM"}, {"measurement": "Ratio THP(cGAMP) IC50/THP(vir) IC50", "setting": "[3]", "result": 298}]}
{"compound": "C#Cc1cnc(O[C@H]2C[C@@H](C(=O)O)N(c3nc(C(F)F)nc4c3oc3ccccc34)C2)c([C@]2(F)CCOC[C@@H]2C)c1", "note": "[Example 1.03]", "values": [{"measurement": "IC50", "setting": "[1]", "result": "> 16600", "unit": "nM"}, {"measurement": "IC50", "setting": "Human cGAS", "result": 2, "unit": "nM"}, {"measurement": "IC50", "setting": "[2]", "result": 137, "unit": "nM"}, {"measurement": "IC50", "setting": "[3]", "result": 283, "unit": "nM"}, {"measurement": "Ratio THP(cGAMP) IC50/THP(vir) IC50", "setting": "[3]", "result": ">59"}]}
{"compound": "O=C(O)[C@@H]1C[C@H](Oc2ncc(Cl)cc2[C@]2(F)CCS(=O)(=O)C3(CCC3)C2)CN1c1nc(C(F)F)nc2c1oc1ccccc12", "note": "[Example 1.21]", "values": [{"measurement": "IC50", "setting": "[1]", "result": 9280, "unit": "nM"}, {"measurement": "IC50", "setting": "Human cGAS", "result": 5, "unit": "nM"}, {"measurement": "IC50", "setting": "[2]", "result": 76, "unit": "nM"}, {"measurement": "IC50", "setting": "[3]", "result": 126, "unit": "nM"}, {"measurement": "Ratio THP(cGAMP) IC50/THP(vir) IC50", "setting": "[3]", "result": 74}]}
{"compound": "CC1(C)C[C@](F)(c2cc(Cl)cnc2O[C@H]2C[C@@H](C(=O)O)N(c3nc(C(F)F)nc4c3oc3ccccc34)C2)CCS1(=O)=O", "note": "[Example 2.08]", "values": [{"measurement": "IC50", "setting": "[1]", "result": 12000, "unit": "nM"}, {"measurement": "IC50", "setting": "Human cGAS", "result": 5, "unit": "nM"}, {"measurement": "IC50", "setting": "[2]", "result": 28, "unit": "nM"}, {"measurement": "IC50", "setting": "[3]", "result": 25, "unit": "nM"}, {"measurement": "Ratio THP(cGAMP) IC50/THP(vir) IC50", "setting": "[3]", "result": 479}]}
{"compound": "N#CN1CCC(F)(c2cc(Cl)cnc2O[C@H]2C[C@@H](C(=O)O)N(c3nc(C(F)F)nc4c3oc3ccccc34)C2)CC1", "note": "[Example 2.05]", "values": [{"measurement": "IC50", "setting": "[1]", "result": 16700, "unit": "nM"}, {"measurement": "IC50", "setting": "Human cGAS", "result": 6, "unit": "nM"}, {"measurement": "IC50", "setting": "[2]", "result": 945, "unit": "nM"}, {"measurement": "IC50", "setting": "[3]", "result": 718, "unit": "nM"}, {"measurement": "Ratio THP(cGAMP) IC50/THP(vir) IC50", "setting": "[3]", "result": 23}]}
{"compound": "C#Cc1cnc(O[C@H]2C[C@@H](C(=O)O)N(c3nc(C(F)F)nc4c3oc3ccccc34)C2)c([C@]2(F)CCS(=O)(=O)C(C)(C)C2)c1", "note": "[Example 1.15]", "values": [{"measurement": "IC50", "setting": "[1]", "result": 10200, "unit": "nM"}, {"measurement": "IC50", "setting": "Human cGAS", "result": 6, "unit": "nM"}, {"measurement": "IC50", "setting": "[2]", "result": 22, "unit": "nM"}, {"measurement": "IC50", "setting": "[3]", "result": 11, "unit": "nM"}, {"measurement": "Ratio THP(cGAMP) IC50/THP(vir) IC50", "setting": "[3]", "result": 963}]}
{"compound": "CC#Cc1cnc(O[C@H]2C[C@@H](C(=O)O)N(c3nc(C(F)F)nc4c3oc3ccccc34)C2)c([C@@]2(F)CCN(C(C)=O)C[C@@H]2C)c1", "note": "[Example 2.18]", "values": [{"measurement": "IC50", "setting": "[1]", "result": 12600, "unit": "nM"}, {"measurement": "IC50", "setting": "Human cGAS", "result": 13, "unit": "nM"}, {"measurement": "IC50", "setting": "[2]", "result": 97, "unit": "nM"}, {"measurement": "IC50", "setting": "[3]", "result": 59, "unit": "nM"}, {"measurement": "Ratio THP(cGAMP) IC50/THP(vir) IC50", "setting": "[3]", "result": 215}]}
{"compound": "O=C(O)[C@@H]1C[C@H](Oc2ncc(Cl)cc2[C@@]2(F)CCN3C(=O)OC[C@H]3C2)CN1c1nc(C(F)F)nc2c1oc1ccccc12", "note": "[Example 2.13]", "values": [{"measurement": "IC50", "setting": "[1]", "result": "> 16600", "unit": "nM"}, {"measurement": "IC50", "setting": "Human cGAS", "result": 7, "unit": "nM"}, {"measurement": "IC50", "setting": "[2]", "result": 582, "unit": "nM"}, {"measurement": "IC50", "setting": "[3]", "result": 818, "unit": "nM"}, {"measurement": "Ratio THP(cGAMP) IC50/THP(vir) IC50", "setting": "[3]", "result": ">20"}]}
{"compound": "C#Cc1cnc(O[C@H]2C[C@@H](C(=O)O)N(c3nc(C(F)F)nc4c3oc3ccccc34)C2)c([C@@]2(F)CCS(=O)(=O)C[C@@H]2C)c1", "note": "[Example 2.11]", "values": [{"measurement": "IC50", "setting": "[1]", "result": "> 16600", "unit": "nM"}, {"measurement": "IC50", "setting": "Human cGAS", "result": 2, "unit": "nM"}, {"measurement": "IC50", "setting": "[2]", "result": 3, "unit": "nM"}, {"measurement": "IC50", "setting": "[3]", "result": 4, "unit": "nM"}, {"measurement": "Ratio THP(cGAMP) IC50/THP(vir) IC50", "setting": "[3]", "result": ">3829"}]}
{"compound": "O=C(O)[C@@H]1C[C@H](Oc2ncc(Cl)cc2[C@]2(F)CCOC[C@@H]2C(F)(F)F)CN1c1nc(C(F)F)nc2c1oc1ccccc12", "note": "[Example 1.25]", "values": [{"measurement": "IC50", "setting": "[1]", "result": 13500, "unit": "nM"}, {"measurement": "IC50", "setting": "Human cGAS", "result": 10, "unit": "nM"}, {"measurement": "IC50", "setting": "[2]", "result": 502, "unit": "nM"}, {"measurement": "IC50", "setting": "[3]", "result": 712, "unit": "nM"}, {"measurement": "Ratio THP(cGAMP) IC50/THP(vir) IC50", "setting": "[3]", "result": 19}]}
{"compound": "CC1(C)C[C@](F)(c2cc(Cl)cnc2O[C@H]2C[C@@H](C(=O)O)N(c3nc(C(F)(F)F)nc4c3oc3ccccc34)C2)CCS1(=O)=O", "note": "[Example 2.09]", "values": [{"measurement": "IC50", "setting": "[1]", "result": 5490, "unit": "nM"}, {"measurement": "IC50", "setting": "Human cGAS", "result": 11, "unit": "nM"}, {"measurement": "IC50", "setting": "[2]", "result": 90, "unit": "nM"}, {"measurement": "IC50", "setting": "[3]", "result": 168, "unit": "nM"}, {"measurement": "Ratio THP(cGAMP) IC50/THP(vir) IC50", "setting": "[3]", "result": 33}]}
{"compound": "COC(=O)[C@@H]1C[C@H](Oc2ncc(Cl)cc2[C@@]2(OC)CC(C)(C)S(=O)(=O)C[C@@H]2C)CN1c1nc(C(F)F)nc2c1oc1ccccc12", "note": "[Example P03]", "values": [{"measurement": "IC50", "setting": "[1]", "result": 20600, "unit": "nM"}, {"measurement": "IC50", "setting": "Human cGAS", "result": 7250, "unit": "nM"}, {"measurement": "IC50", "setting": "[2]", "result": 1990, "unit": "nM"}, {"measurement": "IC50", "setting": "[3]", "result": 202, "unit": "nM"}]}
{"compound": "C[C@H]1CS(=O)(=O)CC[C@]1(F)c1cc(Cl)cnc1O[C@H]1C[C@@H](C(=O)O)N(c2nc(C(F)F)nc3c2oc2ccccc23)C1", "note": "[Example 1.13]", "values": [{"measurement": "IC50", "setting": "[1]", "result": 22500, "unit": "nM"}, {"measurement": "IC50", "setting": "Human cGAS", "result": 2, "unit": "nM"}, {"measurement": "IC50", "setting": "[2]", "result": 6, "unit": "nM"}, {"measurement": "IC50", "setting": "[3]", "result": 6, "unit": "nM"}]}
{"compound": "C[C@H]1CN(C(N)=O)CC[C@]1(F)c1cc(Cl)cnc1O[C@H]1C[C@@H](C(=O)O)N(c2nc(C(F)F)nc3c2oc2ccccc23)C1", "note": "[Example 1.24]", "values": [{"measurement": "IC50", "setting": "[1]", "result": 21800, "unit": "nM"}, {"measurement": "IC50", "setting": "Human cGAS", "result": 7, "unit": "nM"}, {"measurement": "IC50", "setting": "[2]", "result": 479, "unit": "nM"}, {"measurement": "IC50", "setting": "[3]", "result": 248, "unit": "nM"}, {"measurement": "Ratio THP(cGAMP) IC50/THP(vir) IC50", "setting": "[3]", "result": 88}]}
